The text below walks through data of patent publication US20100178330A1, “ASYMMETRIC LIPOSOMES AND USES IN MEDICAL FIELD THEREOF” (priority 2007, published 2010).

Assay [1] deals with M. tuberculosis H37Rv infected dTHP-1 cells. Nature of the assay: Phagolysosome maturation: mycobacteria in LAMP-1 expressing compartments (anti-LAMP-1 / auramin confocal microscopy). In kind it is cell-based. As to conditions: EGTA added to cells stimulated with PS/PA liposomes; FIG. 8.
The test system is the same in assay [2]. The assay is described as follows: Phagolysosome maturation: mycobacteria in acid compartments (Lyso Tracker Red / auramin confocal microscopy). In kind it is cell-based. The conditions noted are these: 3 mM EGTA added to cells stimulated with PS/PA liposomes; FIG. 7.

Take `O=C(O)CN(CCOCCOCCN(CC(=O)O)CC(=O)O)CC(=O)O` [EGTA]: in assay [1], the “effect on PS/PA liposome induced phagolysosome maturation (LAMP-1)” value is “inhibits”. Also, the “effect on PS/PA liposome induced phagosome acidification” value in assay [2] is on record as “inhibits the acidification process of phagosome restoring the initial conditions”.
